Measured values: ChEMBL document CHEMBL1201862, “PubChem BioAssay data set” (2004)
Activity calls are given as the source filed them.

Tests used:
[1] = Fluorescence-based cell-based high throughput dose response assay for inhibitors of the interaction of nucleotide-binding oligomerization domain containing 2 (NOD2) and the receptor-interacting serine-threonine kinase 2 (RIPK2).; type: functional; details: Homo sapiens
[2] = test system: HEK293; assay: EBV LMP1 TES2 canonical NF-kB signalling blockers – cell-based, HEK293, luciferase, cherry-pick, dose response (AID 588343); type: functional; details: Homo sapiens
[3] = biological target: T1, Microphthalmia-associated transcription factor (Homo sapiens, UniProt O75030); assay: reducers of TRPM1 reporter luminescence, concentration series – cell-based, SK-MEL-5, cherry-picked, set 3, MITF inhibitor project, dose response (AID 493073); type: functional;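 note: SK-MEL-5 melanoma cells with luciferase driven by the MITF target TRPM1 promoter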
T1 sequence (O75030 whole entry): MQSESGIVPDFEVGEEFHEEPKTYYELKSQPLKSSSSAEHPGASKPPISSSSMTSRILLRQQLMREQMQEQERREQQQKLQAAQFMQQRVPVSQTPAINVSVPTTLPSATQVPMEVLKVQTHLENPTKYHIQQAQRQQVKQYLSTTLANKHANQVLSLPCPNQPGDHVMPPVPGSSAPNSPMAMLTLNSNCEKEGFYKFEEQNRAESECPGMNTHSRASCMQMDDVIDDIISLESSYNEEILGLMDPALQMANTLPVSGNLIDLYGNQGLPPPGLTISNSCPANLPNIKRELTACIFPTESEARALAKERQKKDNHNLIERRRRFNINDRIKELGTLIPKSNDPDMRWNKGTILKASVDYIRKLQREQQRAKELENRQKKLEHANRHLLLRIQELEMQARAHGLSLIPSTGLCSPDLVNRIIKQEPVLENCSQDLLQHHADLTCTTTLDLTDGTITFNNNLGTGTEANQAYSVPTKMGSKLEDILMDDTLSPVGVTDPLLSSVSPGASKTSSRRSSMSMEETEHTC

[4] = biological target: T2, Rac GTPase-activating protein 1 (Homo sapiens, UniProt Q9H0H5); assay: blockers of MgcRacGAP-driven Rac1 GTP hydrolysis – biochemical, ADP Hunter fluorescence, primary and confirmatory, confirmation (AID 624330); type: functional
T2 sequence (Q9H0H5 whole entry): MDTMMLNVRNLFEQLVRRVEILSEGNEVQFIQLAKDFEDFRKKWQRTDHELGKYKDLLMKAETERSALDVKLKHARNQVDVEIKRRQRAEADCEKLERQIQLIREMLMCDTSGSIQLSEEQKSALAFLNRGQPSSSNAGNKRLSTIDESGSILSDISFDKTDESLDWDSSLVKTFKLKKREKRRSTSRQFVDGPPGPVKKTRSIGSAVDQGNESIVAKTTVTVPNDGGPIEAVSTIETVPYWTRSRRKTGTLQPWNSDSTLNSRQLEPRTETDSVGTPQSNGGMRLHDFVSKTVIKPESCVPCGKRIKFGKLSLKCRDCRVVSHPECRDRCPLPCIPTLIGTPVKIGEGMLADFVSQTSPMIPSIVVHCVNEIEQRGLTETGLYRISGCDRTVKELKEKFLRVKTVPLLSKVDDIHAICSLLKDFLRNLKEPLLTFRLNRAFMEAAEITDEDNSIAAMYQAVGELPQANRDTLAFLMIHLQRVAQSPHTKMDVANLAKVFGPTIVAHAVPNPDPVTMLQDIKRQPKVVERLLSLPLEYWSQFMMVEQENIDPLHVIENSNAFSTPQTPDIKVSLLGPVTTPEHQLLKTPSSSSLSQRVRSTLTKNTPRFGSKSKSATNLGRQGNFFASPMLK

[5] = test system: INS1; assay: INS-1E survival protection against cytokine death – cell-based, luminescence, retest, dose response (AID 449756); type: functional; details: Rattus norvegicus, INS1;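 note: cell death triggered by IL-1 beta plus TNF-alpha plus IFN-gamma mixture; protective hits raise ATP signal compared with cytokine alone wells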
[6] = biological target: T3, Latent membrane protein 1 (Human herpesvirus 4 (strain B95-8), UniProt P03230); assay: LMP1 TES1 pathway selectivity over dsRED control – imaging, HEK293T, dual-color eGFP/dsRED, cherry-picks, selectivity assay for LMP1 NF-kB inhibitor project, dose response (AID 588398); type: functional, cell-based
T3 sequence (P03230 whole entry): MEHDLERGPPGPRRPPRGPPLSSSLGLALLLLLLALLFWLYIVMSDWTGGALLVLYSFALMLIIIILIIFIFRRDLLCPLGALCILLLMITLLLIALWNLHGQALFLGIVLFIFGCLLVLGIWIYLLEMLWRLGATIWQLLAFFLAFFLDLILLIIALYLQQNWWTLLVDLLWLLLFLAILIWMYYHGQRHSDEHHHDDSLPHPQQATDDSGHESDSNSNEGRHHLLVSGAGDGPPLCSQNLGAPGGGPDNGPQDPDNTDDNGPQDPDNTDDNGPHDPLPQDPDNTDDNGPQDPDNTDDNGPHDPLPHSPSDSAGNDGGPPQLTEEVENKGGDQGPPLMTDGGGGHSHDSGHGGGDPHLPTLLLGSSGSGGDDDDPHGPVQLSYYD

[7] = test system: Streptococcus sp. 'group A'; assay: Streptococcus pyogenes SK(-)GAS viability under kanamycin – luminescence, BacTiterGlo, confirmation, counter-screen for streptokinase expression inhibitor project, dose response (AID 1900); type: functional, organism-based
[8] = Luminescence-based counterscreen assay for KLF5 inhibitors: dose response cell-based high throughput screening assay to identify cytotoxic compounds using the IEC-6 intestinal epithelial cell line. [Related pubchem assays: 1700 (Primary screen.), 1834 (Confirmation screen.), 1858 (Summary AID.), 1905 (Counterscreen.)]; type: functional
[9] = test system: Streptococcus; assay: GAS UMAA2166 growth inhibition – luminescence, BacTiterGlo, counter-screen for streptokinase expression inhibitor project, dose response (AID 1915); type: functional, organism-based;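 note: potency for reduction of bacterial viability or growth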
[10] = biological target: Nonstructural protein 1 (Influenza A virus, UniProt Q194T2); type: functional, Influenza A virus (A/California/07/2009(H1N1))
Sequence of Nonstructural protein 1 (Q194T2 whole entry): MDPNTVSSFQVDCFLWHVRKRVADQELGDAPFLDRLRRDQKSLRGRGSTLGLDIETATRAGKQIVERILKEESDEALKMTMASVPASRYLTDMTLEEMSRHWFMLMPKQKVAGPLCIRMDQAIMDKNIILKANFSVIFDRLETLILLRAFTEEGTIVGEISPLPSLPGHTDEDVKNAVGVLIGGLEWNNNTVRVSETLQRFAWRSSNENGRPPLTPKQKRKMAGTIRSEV

[11] = intracellular Trypanosoma cruzi inhibitors in host cells – cell-based, plate reader, cherry-pick samples, set 3, dose response (AID 651818); type: functional;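 note: compounds incubated with infected cells for about four days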
[12] = biological target: Mitochondrial peptide methionine sulfoxide reductase (Bos taurus, UniProt P54149); type: functional;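 note: absorbance read-out, biochemical high-throughput dose-response screen for MsrA inhibitors, confirmatory; recombinant bovine MsrA coupled to E. coli TrxB with NADPH and selenocystamine; potency is for inhibitors of MsrA activity on DMSO substrate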
Sequence of Mitochondrial peptide methionine sulfoxide reductase (P54149 whole entry): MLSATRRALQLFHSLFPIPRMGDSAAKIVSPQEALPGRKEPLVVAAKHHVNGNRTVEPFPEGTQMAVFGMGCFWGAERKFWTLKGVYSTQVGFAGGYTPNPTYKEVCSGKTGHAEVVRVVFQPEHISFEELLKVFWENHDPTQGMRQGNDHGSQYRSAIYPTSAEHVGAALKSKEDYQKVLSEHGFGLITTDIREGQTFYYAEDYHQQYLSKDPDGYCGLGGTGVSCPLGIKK

CCN(CC)CCC(=O)N1C/C(=C/c2ccccc2)C(=O)/C(=C\c2ccccc2)C1
IC50 [1]: 3.5 µM (active) | AC50 [2]: 4.89 µM (active) | AC50 [3]: 4.72 µM (active) | IC50 [4]: 111 µM (active)

O=C(N/N=C/c1cc(Cl)ccc1O)c1cccnc1
AC50 [5]: 1.71 µM (active) | AC50 [6]: 128 µM (active) | EC50 [7]: 1.81 µM (active) | IC50 [8]: > 1.48 µM (active) | EC50 [9]: 7.97 µM (active) | IC50 [10]: 5.8 µM (active)

C[C@H](CO)N1C[C@H](C)[C@H](CN(C)Cc2ccc3c(c2)OCO3)Oc2c(NC(=O)c3nc4ccccc4s3)cccc2C1=O
AC50 [11]: 4.58 µM (active)

C[C@@H]1CN([C@@H](C)CO)C(=O)Cc2cc(NC(=O)Nc3ccc(F)cc3)ccc2O[C@@H]1CN(C)Cc1ccc(C(=O)Nc2ccccc2N)cc1
AC50 [11]: 2.16 µM (active)

CCOC(=O)/C(C#N)=C/C(C(=N)N1CCN(c2ccc(OC)cc2)CC1)=C(/O)OCC
IC50 [12]: 139 µM (inactive)

CCOC(=O)/C(C#N)=C/Nc1ccccc1OC
IC50 [12]: 155 µM (inactive)
